Measurements as given in US20250257071A9, “TRICYCLIC COMPOUND, METHOD FOR PREPARING SAME, AND USE THEREOF” (Sichuan Kelun-Biotech Biopharmaceutical Co., Ltd., priority 2021, published 2025).

Molecular target: human TLR7 (Homo sapiens (Human), UniProt Q9NYK1)
Assay: Agonistic activity of compounds on HEK-Blue hTLR7 cells (QUANTI-Blue reporter, OD620)
Format: cell-based
Settings: for Emax (OD620): OD620 at maximum activation effect
Method: • 1. HEK-Blue hTLR7 cells (Invivogen) were cultured in DMEM medium (Hyclone) containing 10% FBS heat-inactivated fetal bovine serum (Corning). On the day of detection, the cell state was observed under a microscope, the cells were collected and resuspended, and the cell concentration was adjusted after counting, 50 μL per well, the total amount of cells was 2×10^4, and the cells were inoculated in a 96-well plate. • 2. After the cells adhered to the wall overnight, 50 μL of the test compound at different concentrations was added into the well plate, so that the final concentrations were 100 μM, 33.3 μM, 11.11 μM, 3.70 μM, 1.23 μM, 0.41 μM, 0.14 μM, 0.05 μM, 0 μM, and the final concentration of DMSO was 1%. The compound was incubated with the cells in a 37° C., 5% CO2 incubator for 20 h. • 3. After the incubation, observation under microscope was performed to determine the maximum signal well, the states of the cells with the highest and lowest concentrations of the compound, and whether the compound will crystalize at high concentration. 10 μL of cell culture supermatant was taken and transferred to a new 96-well transparent plate, 90 μL of QUANTI-Blue (Invivogen) detection reagent was added to each well, and incubated at 37° C. for 3 h, and OD620 was read with a multifunctional microplate reader (BMG LABTECH). • 4. EC50 was calculated by fitting with Graphpad Prism software log(agonist) vs. response—Variable slope, and Emax was the (D620 at which the activation effect of the test compound reached the maximum.

Sequence of human TLR7 (Q9NYK1 27-1049): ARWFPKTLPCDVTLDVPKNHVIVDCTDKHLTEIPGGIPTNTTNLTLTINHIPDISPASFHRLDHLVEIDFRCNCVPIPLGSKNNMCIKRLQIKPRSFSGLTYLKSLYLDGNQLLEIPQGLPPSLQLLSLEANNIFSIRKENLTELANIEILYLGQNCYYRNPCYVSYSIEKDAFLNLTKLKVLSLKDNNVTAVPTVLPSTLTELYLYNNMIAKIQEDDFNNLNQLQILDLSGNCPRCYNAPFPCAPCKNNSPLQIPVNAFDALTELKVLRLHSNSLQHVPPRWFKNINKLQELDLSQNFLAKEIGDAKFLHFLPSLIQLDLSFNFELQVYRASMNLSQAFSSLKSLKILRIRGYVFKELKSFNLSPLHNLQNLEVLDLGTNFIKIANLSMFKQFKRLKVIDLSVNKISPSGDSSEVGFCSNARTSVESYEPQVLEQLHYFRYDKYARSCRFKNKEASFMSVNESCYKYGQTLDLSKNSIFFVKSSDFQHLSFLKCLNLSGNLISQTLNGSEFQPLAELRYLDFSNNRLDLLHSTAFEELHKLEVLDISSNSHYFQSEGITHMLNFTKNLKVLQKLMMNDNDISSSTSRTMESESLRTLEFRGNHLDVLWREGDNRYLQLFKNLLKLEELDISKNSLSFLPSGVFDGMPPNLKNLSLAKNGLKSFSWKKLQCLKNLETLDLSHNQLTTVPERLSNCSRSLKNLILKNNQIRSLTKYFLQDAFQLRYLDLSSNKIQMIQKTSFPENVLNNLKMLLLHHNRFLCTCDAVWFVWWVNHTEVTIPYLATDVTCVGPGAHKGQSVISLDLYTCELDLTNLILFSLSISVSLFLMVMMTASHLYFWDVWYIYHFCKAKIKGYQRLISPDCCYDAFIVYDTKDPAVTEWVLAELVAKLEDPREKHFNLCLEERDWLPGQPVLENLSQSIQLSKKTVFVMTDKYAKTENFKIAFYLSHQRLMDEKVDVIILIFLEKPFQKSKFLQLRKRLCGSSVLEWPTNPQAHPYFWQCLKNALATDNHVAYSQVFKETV

activation effect on human TLR7 (in words)	Emax (OD620)	Structure (SMILES)
strong activation effect	0.65 OD620	CCCCc1nc2c(N)nc3cc(C4CCN(C)CC4)sc3c2n1CC1CCN(CCOC)CC1 [Compound 42, 2-butyl-1-{[1-(2-methoxyethyl)hexahydropyridin-4-yl]methyl}-7-(1-methylhexahydropyridin-4-yl)thieno[3,2-b]imidazo[4,5-d]pyridine-4-amine]
strong activation effect	0.49 OD620	CCCCc1nc2c(N)nc3cc(C4CCN(C)CC4)sc3c2n1CC1CCN(C)CC1 [Compound 38, 2-butyl-7-(1-methylpiperidin-4-yl)-1-((1-methylpiperidin-4-yl)methyl)-1H-imidazo[4,5-d]thieno[3,2-b]pyridine-4-amine]
strong activation effect	1.41 OD620	COCCc1nc2c(N)nc3ccsc3c2n1CC1CCN(C)CC1 [Compound 56, 2-(2-methoxyethyl)-1-[(1-methylhexahydropyridin-4-yl)methyl]thieno[3,2-b]imidazo[4,5-d]pyridine-4-amine]
strong activation effect	0.84 OD620	CCCCc1nc2c(N)nc3cc(C4CCNCC4)sc3c2n1CC1CCN(CCOC)CC1 [Compound 41, 2-butyl-7-(hexahydropyridin-4-yl)-1-{[1-(2-methoxyethyl)hexahydropyridin-4-yl]methyl}thieno[3,2-b]imidazo[4,5-d]pyridine-4-amine]
strong activation effect	1.21 OD620	CCCCc1nc2c(N)nc3cc(C4CCN(C)CC4)sc3c2n1CC1CCOCC1 [Compound 34, 2-butyl-7-(1-methylpiperidin-4-yl)-1-((tetrahydro-2H-pyran-4-yl)methyl)-1H-imidazo[4,5-d]thieno[3,2-b]pyridine-4-amine]
strong activation effect	1.83 OD620	CCCCc1nc2c(N)nc3cc(C4CCOCC4)sc3c2n1CC1CCN(C)CC1 [Compound 40, 2-butyl-1-((1-methylpiperidin-4-yl)methyl)-7-(tetrahydro-2H-pyran-4-yl)-1H-imidazo[4,5-d]thieno[3,2-b]pyridine-4-amine]
strong activation effect	1.44 OD620	COCCc1nc2c(N)nc3ccsc3c2n1CC1CCNCC1 [Compound 55, 1-(hexahydropyridin-4-ylmethyl)-2-(2-methoxyethyl) thieno[3,2-b]imidazo[4,5-d]pyridine-4-amine]

The remaining lines, values behind:

Structure (SMILES)	activation effect on human TLR7 (in words)	Emax (OD620)
CCCCc1nc2c(N)nc3cc(C)sc3c2n1CC1CCOCC1 [Compound 26, 2-butyl-7-methyl-1-((tetrahydro-2H-pyran-4-yl)methyl)-1H-imidazo[4,5-d]thieno[3,2-b]pyridine-4-amine]	strong activation effect	1.78 OD620
CCCCc1nc2c(N)nc3cc(C)sc3c2n1CC1CCN(C(=O)CCOCCOCCN)CC1 [Compound 17, 1-(4-((4-amino-2-butyl-7-methyl-1H-imidazo[4,5-d]thieno[3,2-b]pyridin-1-yl)methyl)piperidin-1-yl)-3-(2-(2-aminoethoxy)ethoxy)propan-1-one]	strong activation effect	2.23 OD620
CCOCc1nc2c(N)nc3ccsc3c2n1CCCCN [Compound 5, 1-(4-aminobutyl)-2-(2-ethoxymethyl)-1H-imidazo[4,5-d]thieno[3,2-b]pyridine-4-amine]	strong activation effect	1.46 OD620
CCCCc1nc2c(N)nc3cc(C)sc3c2n1CC1CCN(CCOCCOCCN)CC1 [Compound 15, 1-((1-(2-(2-(2-aminoethoxy)ethoxy)ethyl)piperidin-4-yl)methyl)-2-butyl-7-methyl-1H-imidazo[4,5-d]thieno[3,2-b]pyridine-4-amine]	strong activation effect	2.40 OD620
COCCc1nc2c(N)nc3ccsc3c2n1CCCCN [Compound 4, 1-(4-aminobutyl)-2-(2-methoxyethyl)-1H-imidazo[4,5-d]thieno[3,2-b]pyridine-4-amine]	strong activation effect	1.74 OD620
CCCCc1nc2c(N)nc3cc(C)sc3c2n1CC1CCN(CCOCCOCCOCCOCCOCCOCCOC)CC1 [Compound 16, 1-((1-(2,5,8,11,14,17,20-heptaoxadocosan-22-yl)piperidin-4-yl)methyl)-2-butyl-7-methyl-1H-imidazo[4,5-d]thieno[3,2-b]pyridine-4-amine]	strong activation effect	2.18 OD620
CCCCc1nc2c(N)nc3cc(C4=CCN(C)CC4)sc3c2[nH]1 [Compound 8, 2-butyl-7-(1-methyl-1,2,3,6-tetrahydropyridin-4-yl)-1H-imidazo[4,5-d]thieno[3,2-b]pyridine-4-amine]	strong activation effect	0.56 OD620
CCCCc1nc2c(N)nc3ccsc3c2n1CC1CCNCC1 [Compound 25, 2-butyl-1-(piperidin-4-ylmethyl)-1H-imidazo[4,5-d]thieno[3,2-b]pyridine-4-amine]	strong activation effect	2.08 OD620
CCCCc1nc2c(N)nc3cc(C)sc3c2n1CC1CCN(C)CC1 [Compound 28, 2-butyl-7-methyl-1-((1-methylpiperidin-4-yl)methyl)-1H-imidazo[4,5-d]thieno[3,2-b]pyridine-4-amine]	strong activation effect	1.39 OD620
CCCCc1nc2c(N)nc3cc(C4CCN(C)CC4)sc3c2n1C [Compound 32, 2-butyl-1-methyl-7-(1-methylpiperidin-4-yl)-1H-imidazo[4,5-d]thieno[3,2-b]pyridine-4-amine]	strong activation effect	0.91 OD620
